Measurements reported in PMC12040169 (PLOS Biology, 2025).

Experiment: in vitro
Details: human, hela cells, % viability

SMILES	viability at 28.5 h, 10 µM [%]
O=C(CN1CCC(c2nc3ccccc3[nH]2)CC1)Nc1ccc(F)cc1 [CBK287720]	90
CCS(=O)(=O)c1ccc(C(=O)Nc2nc3c(F)cc(F)cc3s2)cc1 [CBK287727]	106
O=C(NCc1cccnc1)C(=O)Nc1cc2c3c(c1)CCC(=O)N3CCC2 [CBK287728]	92
Cc1cc(O)c(C(=O)Nc2cccc(Cl)c2)c(=O)n1Cc1ccccn1 [CBK287729]	99.3
O=C(COc1cccc2c1CCNC2=O)Nc1ccccc1 [CBK287730]	89
Cc1ccc(NC(=O)N2CCn3cccc3C2c2cccnc2)cc1 (stereo not shown) [CBK287733]	87.1
Cc1ccc(CNC(=O)CSc2nc(C)c(C)c(=O)[nH]2)cc1 [CBK287735]	92.8
CCc1nc(C(N)=O)c2[nH]c(=O)n(-c3ccccc3F)c2n1 [CBK287739]	107
Cn1c(=O)c(C(=O)Nc2ccc(Cl)cc2)cc2cccnc21 [CBK287741]	94.4
COc1ccc(C(=O)Nc2nnc(-c3ccc(OC)c(OC)c3)o2)cc1OC [CBK287745]	93.7
COc1cccc2c1OC(c1cccnc1)N1N=C(c3cccc(O)c3)CC21 (stereo not shown) [CBK287747]	104
CCSc1ccnc2c1c(=O)n(C)c(=O)n2C [CBK287749]	98.9
CC1CCc2c(sc(NC(=O)c3ccno3)c2C(N)=O)C1 (stereo not shown) [CBK287752]	85.4
CC(=O)N1CCN(c2ncnc3c2nnn3-c2ccccc2)CC1 [CBK287753]	92.9
O=C(c1ccco1)N(CCCn1ccnc1)c1nc2c(F)cccc2s1 [CBK287758]	86.4
O=C(Cn1ncn2nc(-c3ccccc3)cc2c1=O)Nc1ccc(F)cc1 [CBK287759]	85.8
Cc1ccc(N2C(=O)CC(Sc3ncccc3C(=O)O)C2=O)cc1 (stereo not shown) [CBK287761]	87.7
CCNC(=O)c1cc2c(=O)n3ccccc3nc2n(C)c1=N [CBK287762]	90.7
CCOc1ccc(-c2csc(NC(=O)CC)n2)cc1 [CBK287764]	92.5
Cc1ccc(-c2csc3ncnc(Cl)c23)cc1 [CBK287765]	74.7
COc1ccc2oc(-c3ccccc3)c(C(=O)Nc3nccs3)c2c1 [CBK287767]	71.8
O=C(CSc1nccn(-c2ccc(F)cc2)c1=O)Nc1ccc(F)cc1 [CBK287768]	91.2
COCCCNc1nc2c(-c3ccc(Cl)cc3)nnn2c2ccccc12 [CBK287770]	96.3
COc1ccc(CNC(=O)C2CCCN(c3cnc4ccccc4n3)C2)cc1 (stereo not shown) [CBK287772]	112

SMILES	viability at 28.5 h, 10 µM [%]
COc1cc(-c2noc(-c3cc(-c4ccccc4)n[nH]3)n2)cc(OC)c1OC [CBK287774]	92.3
Cc1nc2c(c(=O)c3ccccc3n2C)c(=O)n1Cc1ccco1 [CBK287776]	100
CCCCN1CC(=O)C(c2nc3ccccc3[nH]2)=C1N [CBK287777]	93.7
CN(C)CCCN1C(=O)C(O)=C(C(=O)c2ccccc2)C1c1ccccn1 (stereo not shown) [CBK287778]	110
Cc1cc(N2C(=O)c3oc4ccccc4c(=O)c3C2c2ccncc2)no1 (stereo not shown) [CBK287780]	103
Cn1c(C2CC(=O)N(c3ccc(Cl)cc3)C2)nc2ccccc21 (stereo not shown) [CBK287783]	87.1
CCCn1c(CN2CCOCC2)nc2ccccc21 [CBK287784]	99.1
O=C(Nc1ccncc1)c1ccc(S(=O)(=O)N2CCCC2)cc1 [CBK287786]	106
O=C(Nc1ccncc1)c1cc(-c2ccncc2)nc2ccccc12 [CBK287787]	100
O=C(CSc1ncnc2c1oc1ccccc12)NC1CCCC1 [CBK287788]	99.4
Cc1ccc(NC(=O)c2ccc(-n3nncc3C)cc2)cc1 [CBK287790]	80.9
CCCCNc1cc(C)nc2c(-c3ccccc3)cnn12 [CBK287792]	92.1
CCN1CCN(c2cc(C)nc3c(-c4ccccc4)cnn23)CC1 [CBK287793]	88.4
CCOc1cc(C)ccc1S(=O)(=O)n1nnc2ccccc21 [CBK287796]	97.3
Cc1nc2c(-c3ccccc3)cnn2c(N2CCCC2)c1C [CBK287799]	89
O=C(c1ccncc1)N1CCc2cc(S(=O)(=O)N3CCOCC3)ccc21 [CBK287800]	92.8
Cc1ccc2oc(C(=O)Nc3ccc(-n4cnnn4)cc3)c(C)c2c1 [CBK287804]	88.1
CCCNc1cc(C)nc2cc(-c3ccc(OC)c(OC)c3)nn12 [CBK287805]	88.2
COc1ccc2ncc(C#N)c(Nc3ccc(OC)c(OC)c3)c2c1 [CBK287808]	92.3
Cc1ccc(NC(=O)Cn2cnc3c(-c4ccccc4)csc3c2=O)cc1 [CBK287812]	104
COc1ccc(NC(=O)c2c[nH]c3nc(C)ccc3c2=O)cc1 [CBK287816]	88.4
COc1ccc(NC(=O)CSc2cc(-n3cccn3)ncn2)cc1 [CBK287819]	116
Cc1ccc(NC(=O)CSc2cc(-n3nc(C)cc3C)ncn2)cc1 [CBK287820]	89
CCCCNC(=O)CCn1c(=O)[nH]c2ccccc2c1=O [CBK287824]	97

SMILES	viability at 28.5 h, 10 µM [%]
CCn1nnc2c(=O)n(CC(=O)Nc3ccccc3)cnc21 [CBK287828]	85.5
O=C(Nc1nnc(Cc2cccs2)o1)c1ccccc1 [CBK287831]	83.9
O=C(c1ccc(F)cc1)N1CCN(c2ccc(Nc3ccncc3)nn2)CC1 [CBK287836]	99.7
Cc1cc(=O)n2c(-c3ccc(NS(=O)(=O)c4cccnc4)cc3)csc2n1 [CBK287837]	91.6
CCCn1c(C(=O)Nc2cccnc2)cc2c(=O)n(C)c(=O)n(C)c21 [CBK287838]	90.8
O=S(=O)(c1ccccc1)N1CCN(c2cnccn2)CC1 [CBK287839]	88.9
COc1ccc(NC(=O)c2csc(Nc3ccccc3)n2)cc1OC [CBK287840]	83.7
Cc1cc(C)cc(NC(=O)Cc2cc(=O)[nH]c(SCc3ccccc3)n2)c1 [CBK287842]	112
Cc1nc(-c2nnc(NC(=O)COc3ccc(Cl)cc3Cl)o2)cs1 [CBK287843]	109
Nc1nc2ccc(-c3nc4ccccc4o3)cc2s1 [CBK287846]	57.4
CCN1C(=O)CC(n2c(C)nc3ccccc32)C1=O (stereo not shown) [CBK287847]	108
Cc1cccc(Nc2ncc(Cc3ccccc3C)s2)n1 [CBK287849]	94.8
O=C(O)c1cnc2ccc(F)cc2c1N1CCOCC1 [CBK287851]	82.5
Cc1ccccc1NC(=O)Cn1c(=O)cnc2ccccc21 [CBK287852]	100
O=c1sc(Nc2ccccc2)nc2ccsc12 [CBK287853]	91.9
CCc1ccc(Oc2cc(N3CCC(C(=O)NC4CC4)CC3)ncn2)cc1 [CBK287854]	102
CC(=O)c1cnc2nc(-c3cccnc3)nn2c1C [CBK287859]	112
CCCCCOc1ccc(C2NC(=O)NC2=O)cc1 (stereo not shown) [CBK287865]	89
O=C(CCC1CCCCC1)Nc1c[nH]c(=O)[nH]c1=O [CBK287867]	90.4
c1ccc(-c2onc3cc4c(cc23)OCCO4)cc1 [CBK287869]	82.8
O=C1CCCc2nccc(-c3ccc(Cl)cc3)c21 [CBK287870]	82.9
CC(=O)c1c(C)c2c(=O)n3c(nc2[nH]c1=O)CCC3 [CBK287872]	93.6
O=C1N=C2C=CC=CN2C(=O)C1Cc1ccccc1 (stereo not shown) [CBK287874]	110
CCCCc1c(O)[nH]c2nc3ccccc3n2c1=O [CBK287875]	98.1

SMILES	viability at 28.5 h, 10 µM [%]
COc1ccc2c(c1)Cc1sc(NC(C)=O)nc1-2 [CBK287876]	93.8
COc1ccc(CNC(=O)c2nc(-c3ccccn3)no2)cc1 [CBK287877]	90.3
COc1ccc(Nc2nccc3c2nnn3C)cc1 [CBK287879]	80.9
N#Cc1c(N)nc2c(c1-c1cccnc1)CCCC2 [CBK287885]	85.8
c1ccc2c(c1)CCCN2c1ncnc2n[nH]cc12 [CBK287886]	69.3
Cn1c(=O)n(C)c2cc(-c3nc4ccccc4c(=O)[nH]3)ccc21 [CBK287887]	98.5
CCc1nnc2ccc(NCc3ccccc3)nn12 [CBK287888]	110
COc1cccc(C2CC(=O)Nc3n[nH]cc32)c1OC (stereo not shown) [CBK287889]	88.1
COc1ccc(/N=c2/cc(C)[nH]c3ncnn23)cc1 [CBK287893]	91.1
CC(C)(C)C1=Nn2c(nnc2-c2n[nH]c3c2CCC3)SC1 [CBK287894]	87.7
Cc1ccc(Nc2nc3c(c(=O)[nH]2)CCCC3)cc1 [CBK287895]	100
Cc1nn(-c2ccc3nnc(C)n3n2)c2c1C(c1ccccc1F)CC(=O)N2 (stereo not shown) [CBK287898]	83.3
O=C1N(c2ccc(Cl)cc2)Cc2nc(=O)[nH]n21 [CBK287899]	91.6
O=C(Nc1ccccc1)c1ccc(F)cc1-n1cnnn1 [CBK287903]	111
N#Cc1c2c(c(-c3ccccc3)[nH]c1=O)CCCC2 [CBK287905]	91.6
O=c1cc(O)c2c(=O)[nH]c(=O)n(-c3ccccc3)c2[nH]1 [CBK287907]	88.2
COc1ccc(C2=NNC(=O)C(c3ccc(OC)cc3)C2)cc1 (stereo not shown) [CBK287908]	99.7
COc1ccc(C2CC(=O)c3c(C)n[nH]c3C2)cc1 (stereo not shown) [CBK287911]	114
CN(C)CCCn1cnc2c1c(=O)[nH]c(=O)n2C [CBK287913]	92.2
Cc1cc(C)nc(Nc2ncc(O)n2-c2ccccc2)n1 [CBK287914]	93.5
CCN(CC)CCNc1nc2c(=O)[nH]c(=O)n(C)c2[nH]1 [CBK287918]	116

Same assay, conditions: human, hela cells, % viability, bulk resorufin, single well

SMILES	viability at 28.5 h, 10 µM [%]
CCC(=O)c1c(O)n(-c2ccccc2)c(=O)[nH]c1=O [CBK287862]	96.8
